Patent US7138361B2, “Herbicidal heterocycles” (E. I. du Pont de Nemours and Company, priority 2000, dated 2006)

Columns and labels:
Experiment in all cases: Test C postemergence
Format in all cases: in vivo
[1] = tested on: Italian ryegrass (Lolium multiflorum)
Method in brief: (§1)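 Plants held in greenhouse for 12–14 days post-application are scored by eye against controls on a 0–100 control scale. Application timing: preemergence on sown seed, or postemergence on 2–18 cm plants.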

[2] = tested on: blackgrass (Alopecurus myosuroides)
Method in brief: as §1

[3] = tested on: canary grass (Phalaris minor)
Method in brief: as §1

[4] = tested on: downy brome (Bromus tectorum)
Method in brief: as §1

[5] = tested on: green foxtail (Setaria viridis)
Method in brief: as §1

[6] = tested on: wheat (Triticum aestivum)
Method in brief: as §1

wild oat (Avena fatua) = tested on: wild oat (Avena fatua)
Method in brief: as §1

[7] = tested on: windgrass (Apera spica-venti)
Method in brief: as §1

[8] = tested on: winter barley (Hordeum vulgare)
Method in brief: as §1

[9] = Rate 250 g/ha, scale 0 to 100 (0 no effect, 100 complete control)
[10] = Rate 500 g/ha, scale 0 to 100 (0 no effect, 100 complete control)
[11] = Rate 125 g/ha, scale 0 to 100, 0 no effect, 100 complete control

COc1cc(N2CCC(n3ccc(C(C)(C)C)n3)C2=O)ccc1Cl (centres unmarked) [Compound 117]
Plant response rating, Ryegrass ([1]; Rate 62 g/ha, scale 0 to 100): 10 | Plant response rating, Ryegrass [1, 9]: 30 | Plant response rating, Ryegrass [1, 10]: 60 | Plant response rating, Blackgrass ([2]; Rate 62 g/ha, scale 0 to 100): 0 | Plant response rating, Blackgrass [2, 11]: 0 | Plant response rating, Blackgrass [2, 9]: 20 | Plant response rating, Blackgrass [2, 10]: 40 | Plant response rating, Canarygrass ([3]; Rate 62 g/ha, scale 0 to 100): 0 | Plant response rating, Canarygrass [3, 11]: 0 | Plant response rating, Canarygrass [3, 9]: 20 | Plant response rating, Canarygrass [3, 10]: 20 | Plant response rating, Downy Brome ([4]; Rate 62 g/ha, scale 0 to 100): 20 | Plant response rating, Downy Brome [4, 11]: 40 | Plant response rating, Downy Brome [4, 10]: 40 | Plant response rating, Foxtail, Green ([5]; Rate 62 g/ha, scale 0 to 100): 10 | Plant response rating, Foxtail, Green [5, 9]: 30 | Plant response rating, Foxtail, Green [5, 10]: 50 | Plant response rating, Wheat ([6]; Rate 62 g/ha, scale 0 to 100): 10 | Plant response rating, Wheat [6, 9]: 10 | Plant response rating, Wheat [6, 10]: 20 | Plant response rating, Wild Oat (wild oat (Avena fatua); Rate 62 g/ha, scale 0 to 100): 30 | Plant response rating, Wild Oat (wild oat (Avena fatua); [9]): 30 | Plant response rating, Wild Oat (wild oat (Avena fatua); [10]): 30 | Plant response rating, Windgrass ([7]; Rate 62 g/ha, scale 0 to 100): 20 | Plant response rating, Windgrass [7, 9]: 40 | Plant response rating, Windgrass [7, 10]: 60 | Plant response rating, Barley, Winter ([8]; Rate 62 g/ha, scale 0 to 100): 0 | Plant response rating, Barley, Winter [8, 11]: 0 | Plant response rating, Barley, Winter [8, 10]: 20
